Test results as given in patent publication US20190125772A1, “IMPROVED DRUG COMBINATIONS FOR DRUG-RESISTANT AND DRUG-SENSITIVE MULTIPLE MYELOMA” (priority 2015, published 2019).

How the values were obtained:
[1] = system: RPMI 8226 (Bortezomib-sensitive) versus THLE-2 healthy control cells; test: FSC in vitro cellular assay, output = cell viability of THLE-2 minus cell viability of RPMI 8226, with linear regression and response surface maps; format: cell-based; details: for drug candidate assessment from two-drug interaction terms: first iteration, interaction coefficients with desirable candidates
From the text: This is expressed as a therapeutic window (% Output) that is the difference in percentage (%) viability between treated multiple myeloma and THLE-2 cells.

[2] = system: Bortezomib-sensitive RPMI 8226 multiple myeloma cells; test: Inhibitory concentrations (ICx, inhibition of cell growth) of the drugs in FSC-derived optimal combinations, Bortezomib-sensitive multiple myeloma; format: cell-based; details: concentration of the single drug as used in optimal combinations
From the text: FIG. 8: Table showing the design of three iterations. IC20 represents 20% inhibitory concentration, which is the dosage of drug for 20% inhibition of cell growth. The first and second iterations are drug screening experiments to remove unfavorable drug candidates.
FIG. 14: Multi-drug optimization experimental assessment of prescribed combinations and output. […] The calculated y from the equation (FIG. 13) is the output as shown here.
In each iteration (experiment run), a list of drug combinations used is based on an experimental design methodology that aims to reduce the number of experiments to obtain sufficient information to build a mathematical equation.
After the list of drug combinations is determined, the drug combinations are applied to an in vitro cellular assay. A healthy control cell (THLE-2) is used to determine liver toxicity caused by drug treatment. Drug efficacy is determined using the B lymphocyte cancer cell (RPMI 8226). Favorable drug combinations would maximize cancer cell killing while minimizing health cell death. […] The experiments are conducted in a rapid, high-throughput manner using an automated liquid handler machine.

With `CC(C)C[C@H](NC(=O)[C@H](CCc1ccccc1)NC(=O)CN1CCOCC1)C(=O)N[C@@H](Cc1ccccc1)C(=O)N[C@@H](CC(C)C)C(=O)[C@@]1(C)CO1` [Carfilzomib, (2S)-N-((S)-1-((S)-4-methyl-1-((R)-2-methyloxiran-2-yl)-1-oxopentan-2-ylcarbamoyl)-2-phenylethyl)-2-((S)-2-(2-morpholinoacetamido)-4-phenylbutanamido)-4-methylpentanamide] the “effect of presence or absence of the drug on the output” value ([1]; third iteration, other four drugs kept at 100%) was “does not change the output”.
For `O.O=P1(N(CCCl)CCCl)NCCCO1` (stereo not shown) [Cyclophoshamide monohydrate], the “drug candidate assessment from two-drug interaction terms” value (from here on “drug candidate assessment”) ([1]; first attempt) was “can be eliminated” and the “drug candidate assessment” value ([1]; second attempt) was “can be eliminated”.
In the case of `Nc1ncn([C@H]2C[C@H](O)[C@@H](CO)O2)c(=O)n1` [Decitabine, 5-aza-2′-deoxycytidine], the “drug candidate assessment” value ([1]; first attempt) is reported as “can be eliminated”.
In the case of `CO[C@@]12[C@H](COC(N)=O)C3=C(C(=O)C(C)=C(N)C3=O)N1C[C@@H]1N[C@@H]12` [Mitomycin C], the “drug candidate assessment” value ([1]; second attempt) is reported as “can be eliminated”.
Work on `Cc1[nH]c2ccccc2c1CCNCc1ccc(/C=C/C(=O)NO)cc1` [Panobinostat, (2E)-N-hydroxy-3-[4-({[2-(2-methyl-1H-indol-3-yl)ethyl]amino}methyl)phenyl]acrylamide] yielded an IC8.75 [2] of ~0.0003239 µM, an IC17.5 [2] of ~0.0005905 µM and an IC26.25 [2] of ~0.0008734 µM. For the same compound, the IC35 [2] was ~1.195 nM, the IC8.75 ([2]; listed as Panobinostal) was “IC8.75/[3.239E−4 μM]” and the IC17.5 ([2]; listed as Panobinostal) was “IC17.5/[5.905E−4 μM]”. For the same compound, the IC26.25 ([2]; listed as Panobinostal) was “IC26.25/[8.734E−4 μM]” and the IC35 ([2]; listed as Panobinostal) was “IC35/[1.195E−3 μM]”.
